# “Also recorded” adds a separate entry of the source.
# What was measured:
# [1] = system: sepsis-induced systemic cytokines and chemokines; experiment: serum cytokines/chemokines in CLP sepsis, Cytokine Antibody Arrays; format: in vivo, Balb/C mice; conditions: P2–1 0.1 or 1.0 mg/kg i.p. at 2 h and 20 h post-CLP; blood at 24 h
# Protocol: (§1) Experimental sepsis was induced in Balb/C mice via cecal ligation and puncture (CLP) as previously described,[30],[37]. […] Briefly, mice were anesthetized intramuscularly with ketamine (75 mg/kg, Henry Schein Animal Health, Dublin, Ohio) and xylazine (10 mg/kg, Sigma-Aldrich) before a midline abdominal incision was made in the lower left abdomen. The cecum was ligated with a 4–0 silk suture at 50% of its length from the distal end, and punctured twice with a 21-gauge needle to induce moderate to severe sepsis. The cecum was returned to the abdominal cavity, and the incision was closed in layers. Approximately 30 min post-CLP, animals received imipenem/cilastatin (0.5 mg/mouse, Primaxin, Merck & Co., Inc.) and 1.0 mL of sterile saline for fluid resuscitation. Animals were randomized to control vehicle and experimental groups, administered P2 or P2–1 intraperitoneally at indicated doses and time points, and monitored for survival rates. To elucidate P2–1’s protective mechanisms, a separate group of Balb/C mice underwent CLP and received P2–1 (1.0 mg/kg) at 2 h and 20 h post-CLP. At 24 h post-CLP, animals were euthanized to collect blood and measure serum cytokines and chemokines using murine Cytokine Antibody Arrays.
# Levels of cytokines and chemokines in mouse serum and joint tissue lysates, or human PBMC culture supernatants were determined using murine or human Cytokine Antibody Arrays (e.g., Cat. No. M0308003 or Cat. No. AAH-CYT-3–4, RayBiotech Inc., Norcross, GA, USA) as previously described,[30],[86],[87]. Serum samples were collected from mice at 24 h post-CLP. The soft tissue of the hindpaw and ankle joints was carefully collected using a previously described protocol. Briefly, 0.5 g of fresh soft tissue was cut into 3 mm pieces, and mixed with 400 μL of a hypertonic solution (500 mL PBS with 4.5 g NaCl and 2× protease inhibitor cocktail) in a 10 mL syringe. Mechanical extrusion, involving 30 rapid back-and-forth movements of the plunger, was then performed. The expelled extracellular fluid was collected, immediately aliquoted, and stored at −20°C until analysis. Cell-conditioned medium was collected from PBMC cultures after 16 h of stimulation. Arrays were performed according to the manufacturer’s protocol, followed by chemiluminescent detection and densitometric quantification as previously described,[30].
# human PBMCs = experiment: RNA-seq of HMGB1-stimulated PBMCs; format: cell-based; conditions: for other HMGB1-induced gene expression (cytokines, chemokines) (words): P2–1 5.0 or 10.0 μg/ml with HMGB1
# Protocol: Human blood was purchased from the New York Blood Center (Long Island City, NY, USA), and PBMCs were isolated by density gradient centrifugation through Ficoll (Ficoll-Paque PLUS) as previously described,[30]. PBMCs were cultured in RPMI-1640 supplemented with 10% human serum, 2 mM L-glutamine, 100 U/mL penicillin, and 100 μg/mL streptomycin (all from Invitrogen). For experiments, PBMCs were stimulated with recombinant human HMGB1 (0.5 or 2.0 μg/ml) for 16 hours, either alone or in combination with P2–1 at 5.0 or 10.0 μg/ml. Cell-free supernatants were collected for analysis of cytokines/chemokines levels by Cytokine Antibody Arrays, or pCTS-L levels by Western blotting analysis as described.
# Total RNA was isolated from human PBMCs stimulated with HMGB1 in the absence or presence of P2–1 (5.0 or 10.0 μg/ml) using the RNeasy Mini Kit (Qiagen) according to the manufacturer’s instructions. RNA quantity and quality were assessed using a NanoDrop spectrophotometer and an Agilent Bioanalyzer. cDNA libraries were prepared using the TruSeq RNA Library Prep Kit v2 (Illumina) and sequenced on an Illumina NovaSeq 6000 platform to generate 100 bp paired-end reads. Raw sequencing reads were quality-checked using FastQC, trimmed with Trimmomatic, and aligned to the human reference genome (GRCh38) using HISAT2. Gene counts were quantified using StringTie and DESeq2 was used for differential gene expression analysis. Volcano plots and heatmaps were generated using ggplot2 and pheatmap packages in R, respectively. Genes with an adjusted P-value < 0.05 and a |log2-fold change| > 1 were considered differentially expressed.
# Recombinant human HMGB1 = biological target: T1, Recombinant human HMGB1 (Homo sapiens, UniProt P09429); experiment: SPR (OpenSPR) binding to immobilized HMGB1; conditions: immobilized HMGB1, HBS-P buffer; Fig. 5A; Mean ± SEM, n = 2 independent experiments
# T1 construct: made in house; host or cells: E. coli BL21 (DE3) pLysS
# T1 sequence (P09429 1-215): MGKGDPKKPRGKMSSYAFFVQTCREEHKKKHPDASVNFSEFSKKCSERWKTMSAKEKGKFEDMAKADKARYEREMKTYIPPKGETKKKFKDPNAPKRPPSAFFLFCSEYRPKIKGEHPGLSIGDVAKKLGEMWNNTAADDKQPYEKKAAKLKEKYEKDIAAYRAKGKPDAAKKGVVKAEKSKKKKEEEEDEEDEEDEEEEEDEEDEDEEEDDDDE
# Protocol: Binding kinetics between HMGB1 and P2–1 were measured using Nicoya Life Science gold nanoparticle-based OpenSPR technology (Kitchener, ON, Canada) as previously described,[84]. Recombinant human HMGB1 was immobilized onto a Carboxyl sensor chip, and P2–1 peptide was flowed over immobilized HMGB1 at various concentrations in HBS-P buffer (GE Healthcare). Response units were recorded over time, and binding affinity was estimated as the equilibrium dissociation constant KD using Trace Drawer Kinetic Data Analysis v.1.6.1 (Nicoya Life Science).
# CLP-induced sepsis = experiment: CLP sepsis survival; format: in vivo, Balb/C mice
# Protocol: as §1
# All data were first assessed for normality using the Shapiro-Wilk test before applying the appropriate statistical analyses. All data are presented as mean ± standard error of the mean (SEM) unless otherwise specified. For comparison among multiple groups with non-normal (skewed) distribution, the Kruskal-Wallis ANOVA test followed by Dunn’s post-hoc test was used to evaluate statistical differences. Survival curves were analyzed using Kaplan-Meier method and compared using the nonparametric log-rank (Mantel-Cox) test. Statistical significance was defined as a P value less than 0.05.
substance,measurement,setting,value
"54-TKVH(Nle)KSFLAFQTKT-69 [P2–1, water-soluble derivative of TN peptide P2 with Met to Norleucine and Cys to Ser substitutions]",sepsis-induced systemic inflammation,[1],significantly attenuated
same,serum BLC/CXCL13,[1],significantly reduced
same,serum G-CSF,[1],significantly reduced
same,serum IL-6,[1],significantly reduced
same,serum KC/GRO-α/CXCL1,[1],significantly reduced
same,serum MCP-1/CCL2,[1],significantly reduced
same,serum MIP-1γ/CCL9/10,[1],significantly reduced
same,serum MIP-2/GRO-β/CXCL3,[1],significantly reduced
same,serum sTNFRI,[1],significantly reduced
same,Ctsl mRNA upregulation (fold),"human PBMCs; HMGB1 + P2–1 group, three independent donors, mean ± SEM",2.4 ± 0.1 fold
same,HMGB1-induced Ctsl mRNA upregulation,human PBMCs; P2–1 5.0 or 10.0 μg/ml,moderately but significantly reduced HMGB1-induced Ctsl mRNA upregulation
same,"other HMGB1-induced gene expression (cytokines, chemokines) (words)",human PBMCs,did not broadly reverse HMGB1-induced transcriptional changes for most genes; also recorded: not significantly affecting the expression of other HMGB1-induced cytokines and chemokines
same,"other HMGB1-induced gene expression (cytokines, chemokines) (words)",human PBMCs; listed as P2-1,does not induce
same,Kd,Recombinant human HMGB1,24.1 ± 9.35 nM
same,animal survival (# of Survivors),"CLP-induced sepsis; Fig. 2C, P2–1 0.1 mg/kg, delayed administration (24 h and 48 h post-CLP), no asterisk",60%
same,survival,"CLP-induced sepsis; P2–1 0.1 mg/kg at 2 h, 20 h, 28 h, 44 h, and 52 h post-CLP, 0.1 mg/kg",conferred significant protection against lethal sepsis
same,animal survival (# of Survivors),"CLP-induced sepsis; P2–1 0.1 mg/kg i.p. at 2 h, 20 h, 28 h, 44 h, and 52 h post-CLP, P < 0.05 vs. control",70%
same,survival,"CLP-induced sepsis; P2–1 1.0 mg/kg, delayed, 24 h and 48 h post-CLP, 1 mg/kg",provided potent protection against lethal sepsis; also recorded: rescued mice from lethal sepsis
same,animal survival (# of Survivors),"CLP-induced sepsis; delayed, P2–1 1.0 mg/kg i.p. at 24 h and 48 h post-CLP, P < 0.05 vs. vehicle",90%

# Source: publication PMC12458545, “Repurposing a Detrimental Antibody Epitope as Targeted Therapeutics for Sepsis and Rheumatoid Arthritis” (Research Square, 2025)
